# Measurements taken from patent publication US10570129B2 (Zoetis Services LLC, priority 2015, dated 2020).
# Like-named read-outs stand apart in the source and are kept apart here.
# Legend:
# [1] = system: D. immitis microfilariae; assay: Dirofilaria immitis, microfilariae (DiMF) in vitro motility assay; type: cell-based; conditions: for minimal effective concentration: Dirofilaria immitis, 72 h, read-out: DiMF minimally effective dose (MEC)
# [2] = system: Trichostrongylus colubriformis; assay: Jird efficacy model; type: in vivo; conditions: for inhibition in vivo at 10 mg/kg: Trichostrongylus colubriformis, sc, 96 h, read-out: Jird % (percentage efficacy)
# [3] = system: Haemonchus contortus L3; assay: microbe, parasite or virus in culture; type: cell-based; conditions: for minimal effective concentration: Haemonchus contortus, 96 h, read-out: HcL3 Minimal Effective Concentration (MEC)
# [4] = decrease in microfilariae motility by subjective visual assessment, observed at 72 hours
Compound,minimal effective concentration [1],minimal effective concentration [3],"DiMF minimally effective dose (MEC) [1, 4]",HcL3 Minimal Effective Concentration (MEC) [3],further results
"N#Cc1ccc2c3c(n(C(=O)NCc4ccnc(Cl)c4)c2c1)CCN(C/C=C/c1cc(F)c(Cl)c(F)c1)C3 [Example 1, (E)-2-(3-(4-chloro-3,5-difluorophenyl)allyl)-N-((2-chloropyridin-4-yl)methyl)-7-cyano-1,2,3,4-tetrahydro-5H-pyrido[4,3-b]indole-5-carboxamide]",0.2 µM,0.2 µM,–,–,inhibition in vivo at 10 mg/kg [2]: 100%
"N#Cc1ccc2c3c(n(C(=O)NCc4ccnc(Cl)c4)c2c1)CCN(C/C=C/c1ccc(Cl)c(F)c1)C3 [Example 2, (E)-2-(3-(4-chloro-3-fluorophenyl)allyl)-N-((2-chloropyridin-4-yl)methyl)-7-cyano-1,2,3,4-tetrahydro-5H-pyrido[4,3-b]indole-5-carboxamide]",4.8 µM,1.6 µM,–,–,inhibition in vivo at 10 mg/kg [2]: 100%
"N#Cc1ccc2c3c(n(C(=O)NCc4ccnc(Cl)c4)c2c1)CCN(C/C=C/c1ccc(Cl)cc1Cl)C3 [Example 3, (E)-N-[(2-chloro-4-pyridyl)methyl]-7-cyano-2-[(E)-3-(2,4-dichlorophenyl)allyl]-3,4-dihydro-1H-pyrido[4,3-b]indole-5-carboxamide]",–,–,18.2 µM,1.0 µM,"Jird % (percentage efficacy) ([2]; Mongolian gerbil (jird) infected with T. colubriformis, 10 mg/kg subcutaneous, worm count approximately four days after dosing): 99%"
"N#Cc1ccc2c3c(n(C(=O)NCc4ccnc(Cl)c4)c2c1)CCN(C/C=C/c1c(F)cc(Cl)cc1F)C3 [Example 6, (E)-2-(3-(4-chloro-2,6-difluorophenyl)allyl)-N-((2-chloropyridin-4-yl)methyl)-7-cyano-1,2,3,4-tetrahydro-5H-pyrido[4,3-b]indole-5-carboxamide]",18.2 µM,2.4 µM,–,–,inhibition in vivo at 10 mg/kg [2]: 99%
"N#Cc1ccc2c3c(n(C(=O)NCc4ccnc(Cl)c4)c2c1)CCN(C/C=C/c1ccc(Cl)cc1F)C3 [Example 7, (E)-2-(3-(4-chloro-2-fluorophenyl)allyl)-N-((2-chloropyridin-4-yl)methyl)-7-cyano-1,2,3,4-tetrahydro-5H-pyrido[4,3-b]indole-5-carboxamide]",10 µM,2.4 µM,–,–,inhibition in vivo at 10 mg/kg [2]: 100%
"N#Cc1ccc2c3c(n(C(=O)NCc4ccnc(Cl)c4)c2c1)CCN(C/C=C/c1c(F)cc(F)cc1F)C3 [Example 9, (E)-N-((2-chloropyridin-4-yl)methyl)-7-cyano-2-(3-(2,4,6-trifluorophenyl)allyl)-1,2,3,4-tetrahydro-5H-pyrido[4,3-b]indole-5-carboxamide]",5.7 µM,7.6 µM,–,–,inhibition in vivo at 10 mg/kg [2]: 99%
"N#Cc1cc2c3c(n(C(=O)NCc4ccnc(Cl)c4)c2cc1OC(F)(F)F)CCN(C/C=C/c1ccc(Cl)cc1)C3 [Example 503, (E)-2-(3-(4-chlorophenyl)allyl)-N-((2-chloropyridin-4-yl)methyl)-8-cyano-7-(trifluoromethoxy)-1,2,3,4-tetrahydro-5H-pyrido[4,3-b]indole-5-carboxamide]",3.3 µM,33 µM,–,–,–
"O=C(NCc1ccnc(Cl)c1)n1c2c(c3cc(N4CCCC4)ccc31)CN(C/C=C/c1ccc(Cl)c(F)c1)CC2 [Example 506, (E)-2-(3-(4-chloro-3-fluorophenyl)allyl)-N-((2-chloropyridin-4-yl)methyl)-8-(pyrrolidin-1-yl)-1,2,3,4-tetrahydro-5H-pyrido[4,3-b]indole-5-carboxamide]",> 100 µM,7.6 µM,–,–,–
"O=C(NCc1ccnc(Cl)c1)n1c2c(c3ccc(N4CCOCC4)cc31)CN(C/C=C/c1ccc(Cl)c(Cl)c1)CC2 [Example 508, (E)-N-((2-chloropyridin-4-yl)methyl)-2-(3-(3,4-dichlorophenyl)allyl)-7-morpholino-1,2,3,4-tetrahydro-5H-pyrido[4,3-b]indole-5-carboxamide]",9 µM,1.6 µM,–,–,–
"O=C(NCc1ccnc(Cl)c1)n1c2c(c3ccc(N4CCOCC4)cc31)CN(C/C=C/c1ccc(Cl)c(F)c1)CC2 [Example 509, (E)-2-(3-(4-chloro-3-fluorophenyl)allyl)-N-((2-chloropyridin-4-yl)methyl)-7-morpholino-1,2,3,4-tetrahydro-5H-pyrido[4,3-b]indole-5-carboxamide]",18.2 µM,1 µM,–,–,–
O=C(NCc1ccnc(Cl)c1)n1c2c(c3cc(N4CCSCC4)ccc31)CN(C/C=C/c1ccc(Cl)c(F)c1)CC2 [Example 510],> 100 µM,> 100 µM,–,–,–
"O=C(NCc1ccnc(Cl)c1)n1c2c(c3cc(N4CCCSC4)ccc31)CN(C/C=C/c1ccc(Cl)c(Cl)c1)CC2 [Example 511, (E)-N-((2-chloropyridin-4-yl)methyl)-2-(3-(3,4-dichlorophenyl)allyl)-8-(1,3-thiazinan-3-yl)-1,2,3,4-tetrahydro-5H-pyrido[4,3-b]indole-5-carboxamide]",> 100 µM,> 100 µM,–,–,–
"COc1ccc2c(c1)c1c(n2C(=O)NCc2ccnc(Cl)c2)CCN(C/C=C/c2ccc(Cl)cc2)C1 [Example 512, (E)-2-(3-(4-chlorophenyl)allyl)-N-((2-chloropyridin-4-yl)methyl)-8-methoxy-1,2,3,4-tetrahydro-5H-pyrido[4,3-b]indole-5-carboxamide]",10 µM,1 µM,–,–,–
"CCOc1ccc2c(c1)c1c(n2C(=O)NCc2ccnc(Cl)c2)CCN(C/C=C/c2ccc(Cl)cc2)C1 [Example 513, (E)-2-(3-(4-chlorophenyl)allyl)-N-((2-chloropyridin-4-yl)methyl)-8-ethoxy-1,2,3,4-tetrahydro-5H-pyrido[4,3-b]indole-5-carboxamide]",3.3 µM,7.6 µM,–,–,–
"CCOc1ccc2c(c1)c1c(n2C(=O)NCc2ccnc(Cl)c2)CCN(C/C=C/c2ccc(F)cc2)C1 [Example 514, (E)-N-((2-chloropyridin-4-yl)methyl)-8-ethoxy-2-(3-(4-fluorophenyl)allyl)-1,2,3,4-tetrahydro-5H-pyrido[4,3-b]indole-5-carboxamide]",5.7 µM,5.7 µM,–,–,–
"N#Cc1ccc2c3c(n(C(=O)NCc4ccnc(C5CC5)c4)c2c1)CCN(C/C=C/c1ccc(Cl)c(F)c1)C3 [Example 515, (E)-2-(3-(4-chloro-3-fluorophenyl)allyl)-7-cyano-N-((2-cyclopropylpyridin-4-yl)methyl)-1,2,3,4-tetrahydro-5H-pyrido[4,3-b]indole-5-carboxamide]",13.5 µM,1.8 µM,–,–,–
"O=C(NCc1ccnc(Cl)c1)N1c2ccc(Cl)cc2C2CN(C/C=C/c3ccc(Cl)cc3)CCC21 (centres unmarked) [Example 516, (E)-8-chloro-2-(3-(4-chlorophenyl)allyl)-N-((2-chloropyridin-4-yl)methyl)-1,2,3,4,4a,9b-hexahydro-5H-pyrido[4,3-b]indole-5-carboxamide]",–,–,–,0.3 µM,DiMF minimally effective dose (MEC) [1]: 10.0 µM
"O=C(NCc1ccnc(Cl)c1)N1c2ccc(Cl)cc2C2CN(C/C=C/c3ccc(Cl)c(Cl)c3)CCC21 (centres unmarked) [Example 517, (E)-8-chloro-N-((2-chloropyridin-4-yl)methyl)-2-(3-(3,4-dichlorophenyl)allyl)-1,2,3,4,4a,9b-hexahydro-5H-pyrido[4,3-b]indole-5-carboxamide]",–,–,–,0.5 µM,DiMF minimally effective dose (MEC) [1]: 10.0 µM
"(E)-7,8-dichloro-N-((2-fluoropyridin-4-yl)methyl)-2-(3-(5-(trifluoromethyl)pyridin-2-yl)allyl)-1,2,3,4-tetrahydro-5H-pyrido[4,3-b]indole-5-carboxamide [Example 287]",–,–,3.3 µM,0.2 µM,–
"(E)-7-chloro-2-(3-(4-cyano-3-fluorophenyl)allyl)-N-((2-fluoropyridin-4-yl)methyl)-1,2,3,4-tetrahydro-5H-pyrido[4,3-b]indole-5-carboxamide [Example 225]",–,–,3.3 µM,1.8 µM,–
"(E)-8-cyano-2-(3-(2,4-difluorophenyl)allyl)-N-((2-(trifluoromethyl)pyridin-4-yl)methyl)-1,2,3,4-tetrahydro-5H-pyrido[4,3-b]indole-5-carboxamide [Example 129]",–,–,3.5 µM,0.05 µM,–
"(E)-9-chloro-2-(3-(4-chlorophenyl)allyl)-N-((2-chloropyridin-4-yl)methyl)-8-fluoro-1,2,3,4-tetrahydro-5H-pyrido[4,3-b]indole-5-carboxamide [Example 318]",–,–,5.7 µM,3.3 µM,–
"(E)-N-((2-chloropyridin-4-yl)methyl)-2-(3-(3,4-dichlorophenyl)allyl)-8-(pyrrolidin-1-yl)-1,2,3,4-tetrahydro-5H-pyrido[4,3-b]indole-5-carboxamide [Example 507]",–,–,13.5 µM,10.0 µM,–
"(E)-N-((2-chloropyridin-4-yl)methyl)-2-(3-(3,4-dichlorophenyl)allyl)-9-methyl-1,2,3,4-tetrahydro-5H-pyrido[4,3-b]indole-5-carboxamide [Example 148]",–,–,10.0 µM,5.7 µM,–
"N-((2-chloropyridin-4-yl)methyl)-2-((6-fluoronaphthalen-2-yl)methyl)-7-(trifluoromethoxy)-1,2,3,4-tetrahydro-5H-pyrido[4,3-b]indole-5-carboxamide [Example 366]",–,–,2.4 µM,>100 µM,–
